From the NIST ThermoML archive (doi:10.1016/j.fluid.2005.08.006) come the findings set out here.

Numbers after ± are expanded uncertainties.

This data set in a line: refractive index (Na D-line) (dimensionless). The following applies: 293.15 K; 101.33 kPa; Liquid; Standard Abbe refractometry.
Broadly, the refractive index is the speed of light in vacuum divided by its phase velocity in the sample. Turning to `C1CCCCC1` [cyclohexane], the refractive index is reported as 1.4265 ± 0.0007.

Regarding `CCCCC(=O)O` [pentanoic acid], the refractive index is 1.4087 ± 0.0007.

Take `CCCCCC` [hexane]: the refractive index came to 1.3749 ± 0.0007. The same measure for `CC(C)C(=O)O` [2-methylpropanoic acid]: 1.3933 ± 0.0007; for `CCO` [ethanol]: 1.3612 ± 0.0007. The same measure for `CCC(=O)O` [propanoic acid]: 1.381 ± 0.0007; for `CCCCCCCCCC` [decane]: 1.4105 ± 0.0007.
